Reference: ChEMBL document CHEMBL3991601, “The target landscape of clinical kinase drugs” (Science, 2017)
The source made the active and inactive calls.

Experiments:
[1] = biological target: Choline-phosphate cytidylyltransferase A (Homo sapiens, UniProt P49585)
[2] = biological target: Bone morphogenetic protein receptor type-1A (Homo sapiens, UniProt P36894)
[3] = biological target: PAS domain-containing serine/threonine-protein kinase (Homo sapiens, UniProt Q96RG2)
[4] = biological target: Serine/threonine-protein kinase MRCK gamma (Homo sapiens, UniProt Q6DT37)
Serine/threonine-protein kinase MRCK gamma, sequence (Q6DT37 whole entry): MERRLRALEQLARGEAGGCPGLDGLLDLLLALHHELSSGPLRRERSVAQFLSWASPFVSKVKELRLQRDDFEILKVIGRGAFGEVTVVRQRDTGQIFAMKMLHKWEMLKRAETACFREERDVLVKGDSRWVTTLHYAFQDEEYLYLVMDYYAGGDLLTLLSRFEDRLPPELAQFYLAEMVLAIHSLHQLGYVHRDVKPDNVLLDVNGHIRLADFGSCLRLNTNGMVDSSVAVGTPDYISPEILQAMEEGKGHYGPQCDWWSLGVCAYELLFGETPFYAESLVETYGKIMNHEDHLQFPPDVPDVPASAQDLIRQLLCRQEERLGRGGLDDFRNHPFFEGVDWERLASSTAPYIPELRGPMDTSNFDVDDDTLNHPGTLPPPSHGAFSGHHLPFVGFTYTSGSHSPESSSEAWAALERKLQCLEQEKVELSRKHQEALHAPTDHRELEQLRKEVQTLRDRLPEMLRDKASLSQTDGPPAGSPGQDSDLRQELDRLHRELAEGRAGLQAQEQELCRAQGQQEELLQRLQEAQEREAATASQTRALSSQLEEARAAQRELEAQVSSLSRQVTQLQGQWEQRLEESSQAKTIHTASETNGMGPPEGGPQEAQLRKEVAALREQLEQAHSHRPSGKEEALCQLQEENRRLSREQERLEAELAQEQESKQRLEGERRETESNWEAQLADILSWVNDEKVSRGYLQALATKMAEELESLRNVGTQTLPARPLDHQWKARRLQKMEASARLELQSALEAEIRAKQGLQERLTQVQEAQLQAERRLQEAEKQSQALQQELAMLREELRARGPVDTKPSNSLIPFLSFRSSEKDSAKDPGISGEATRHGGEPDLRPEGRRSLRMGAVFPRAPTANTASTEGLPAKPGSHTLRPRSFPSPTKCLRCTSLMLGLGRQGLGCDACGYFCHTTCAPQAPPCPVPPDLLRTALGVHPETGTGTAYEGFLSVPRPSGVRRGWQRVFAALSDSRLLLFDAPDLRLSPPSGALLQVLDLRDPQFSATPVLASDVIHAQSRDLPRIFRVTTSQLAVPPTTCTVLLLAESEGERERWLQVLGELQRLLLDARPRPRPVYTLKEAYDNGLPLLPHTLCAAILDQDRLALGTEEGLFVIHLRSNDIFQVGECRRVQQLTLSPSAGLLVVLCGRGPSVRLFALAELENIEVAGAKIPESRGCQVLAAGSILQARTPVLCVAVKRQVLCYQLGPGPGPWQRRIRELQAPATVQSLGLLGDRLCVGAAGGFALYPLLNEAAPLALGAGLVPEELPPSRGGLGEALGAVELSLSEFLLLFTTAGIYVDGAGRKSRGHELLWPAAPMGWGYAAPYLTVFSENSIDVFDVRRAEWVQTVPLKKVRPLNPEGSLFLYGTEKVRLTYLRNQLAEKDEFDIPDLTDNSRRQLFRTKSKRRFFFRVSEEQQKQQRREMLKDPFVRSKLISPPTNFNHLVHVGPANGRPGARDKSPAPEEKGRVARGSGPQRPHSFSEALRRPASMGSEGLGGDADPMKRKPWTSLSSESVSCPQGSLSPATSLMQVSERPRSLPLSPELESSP

[5] = biological target: T1, Mitogen-activated protein kinase kinase kinase 3 (Homo sapiens, UniProt Q99759)
T1 sequence (Q99759 whole entry): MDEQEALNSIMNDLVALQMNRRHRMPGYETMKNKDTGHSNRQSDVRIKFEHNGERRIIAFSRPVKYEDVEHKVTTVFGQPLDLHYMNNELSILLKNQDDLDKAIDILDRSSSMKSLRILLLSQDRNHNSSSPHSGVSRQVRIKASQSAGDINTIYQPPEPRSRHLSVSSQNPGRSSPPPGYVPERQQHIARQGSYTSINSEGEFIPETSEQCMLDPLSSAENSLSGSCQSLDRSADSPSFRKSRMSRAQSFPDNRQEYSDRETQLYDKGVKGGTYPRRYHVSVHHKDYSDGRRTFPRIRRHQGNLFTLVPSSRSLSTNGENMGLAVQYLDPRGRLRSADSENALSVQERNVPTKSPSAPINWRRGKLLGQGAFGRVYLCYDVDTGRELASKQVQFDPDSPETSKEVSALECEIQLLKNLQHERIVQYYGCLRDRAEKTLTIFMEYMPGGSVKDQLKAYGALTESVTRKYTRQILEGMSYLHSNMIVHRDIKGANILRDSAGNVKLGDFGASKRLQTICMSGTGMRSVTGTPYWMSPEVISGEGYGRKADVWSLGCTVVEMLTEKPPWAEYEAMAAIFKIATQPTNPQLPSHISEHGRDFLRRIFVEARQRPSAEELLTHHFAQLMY

[6] = biological target: Dual specificity testis-specific protein kinase 2 (Homo sapiens, UniProt Q96S53)
Dual specificity testis-specific protein kinase 2, sequence (Q96S53 whole entry): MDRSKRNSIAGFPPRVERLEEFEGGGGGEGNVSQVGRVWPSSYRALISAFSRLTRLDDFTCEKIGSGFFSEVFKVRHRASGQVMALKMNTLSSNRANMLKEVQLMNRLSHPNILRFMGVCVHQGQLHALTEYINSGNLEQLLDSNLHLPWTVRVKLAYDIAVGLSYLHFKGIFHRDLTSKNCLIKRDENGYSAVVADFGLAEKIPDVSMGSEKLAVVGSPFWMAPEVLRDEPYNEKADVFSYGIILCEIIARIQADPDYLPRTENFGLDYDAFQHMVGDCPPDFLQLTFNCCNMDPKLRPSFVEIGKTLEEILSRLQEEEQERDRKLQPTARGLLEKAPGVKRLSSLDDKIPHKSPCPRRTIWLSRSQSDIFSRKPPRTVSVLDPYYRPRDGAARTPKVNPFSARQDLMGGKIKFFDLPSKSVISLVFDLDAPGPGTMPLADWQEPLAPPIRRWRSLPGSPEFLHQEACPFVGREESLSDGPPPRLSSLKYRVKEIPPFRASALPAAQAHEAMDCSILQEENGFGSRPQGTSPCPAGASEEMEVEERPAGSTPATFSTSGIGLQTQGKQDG

[7] = biological target: Chromodomain-helicase-DNA-binding protein 4 (Homo sapiens, UniProt Q14839)
Chromodomain-helicase-DNA-binding protein 4, sequence (Q14839 whole entry): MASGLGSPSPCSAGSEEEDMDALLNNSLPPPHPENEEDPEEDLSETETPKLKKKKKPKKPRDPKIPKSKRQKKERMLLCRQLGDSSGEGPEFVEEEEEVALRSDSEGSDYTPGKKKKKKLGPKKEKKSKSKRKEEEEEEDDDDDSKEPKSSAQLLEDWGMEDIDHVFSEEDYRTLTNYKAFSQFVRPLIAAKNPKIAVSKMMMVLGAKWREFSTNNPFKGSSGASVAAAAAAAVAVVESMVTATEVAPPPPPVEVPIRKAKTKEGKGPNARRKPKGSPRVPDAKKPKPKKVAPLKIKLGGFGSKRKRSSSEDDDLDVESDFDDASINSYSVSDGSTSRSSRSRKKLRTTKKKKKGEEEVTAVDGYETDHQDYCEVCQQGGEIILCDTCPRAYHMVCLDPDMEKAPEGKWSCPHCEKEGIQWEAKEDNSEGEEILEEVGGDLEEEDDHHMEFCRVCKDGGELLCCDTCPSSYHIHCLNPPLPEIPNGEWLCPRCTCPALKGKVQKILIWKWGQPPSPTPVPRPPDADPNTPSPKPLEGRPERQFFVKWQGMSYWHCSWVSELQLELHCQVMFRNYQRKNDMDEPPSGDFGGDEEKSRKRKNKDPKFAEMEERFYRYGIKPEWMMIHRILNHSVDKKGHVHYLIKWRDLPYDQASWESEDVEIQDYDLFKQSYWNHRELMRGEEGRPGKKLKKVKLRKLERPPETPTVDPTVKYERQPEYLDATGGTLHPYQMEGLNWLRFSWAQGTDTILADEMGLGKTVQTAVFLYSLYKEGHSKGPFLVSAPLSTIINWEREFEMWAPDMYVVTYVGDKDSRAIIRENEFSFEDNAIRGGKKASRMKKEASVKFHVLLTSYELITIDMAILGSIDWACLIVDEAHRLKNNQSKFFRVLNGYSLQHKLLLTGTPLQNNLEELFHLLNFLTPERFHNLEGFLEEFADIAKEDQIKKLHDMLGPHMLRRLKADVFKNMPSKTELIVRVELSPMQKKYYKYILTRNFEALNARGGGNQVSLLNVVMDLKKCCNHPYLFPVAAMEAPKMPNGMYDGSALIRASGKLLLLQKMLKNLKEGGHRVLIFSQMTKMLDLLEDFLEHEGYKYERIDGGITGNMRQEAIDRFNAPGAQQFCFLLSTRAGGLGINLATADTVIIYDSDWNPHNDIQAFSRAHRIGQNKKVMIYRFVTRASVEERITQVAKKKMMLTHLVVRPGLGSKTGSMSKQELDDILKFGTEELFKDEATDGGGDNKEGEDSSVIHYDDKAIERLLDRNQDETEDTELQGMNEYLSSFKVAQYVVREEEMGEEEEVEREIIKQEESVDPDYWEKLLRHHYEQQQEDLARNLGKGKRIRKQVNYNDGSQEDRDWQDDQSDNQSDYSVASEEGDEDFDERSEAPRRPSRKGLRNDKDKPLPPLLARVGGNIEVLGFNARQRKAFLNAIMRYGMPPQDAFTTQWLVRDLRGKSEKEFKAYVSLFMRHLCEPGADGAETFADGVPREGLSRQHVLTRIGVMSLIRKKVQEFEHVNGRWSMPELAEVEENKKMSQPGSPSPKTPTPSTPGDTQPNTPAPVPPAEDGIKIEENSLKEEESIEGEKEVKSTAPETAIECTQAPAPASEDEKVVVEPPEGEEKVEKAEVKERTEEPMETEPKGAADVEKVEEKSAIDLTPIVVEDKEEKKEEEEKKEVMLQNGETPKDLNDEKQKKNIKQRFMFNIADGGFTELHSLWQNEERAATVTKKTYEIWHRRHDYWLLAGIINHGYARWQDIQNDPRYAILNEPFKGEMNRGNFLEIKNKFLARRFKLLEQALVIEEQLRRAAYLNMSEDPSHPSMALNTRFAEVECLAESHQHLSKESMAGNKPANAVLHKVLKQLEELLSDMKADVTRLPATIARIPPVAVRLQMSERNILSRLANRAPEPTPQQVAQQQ

[8] = biological target: Phosphatidylethanolamine-binding protein 1 (Homo sapiens, UniProt P30086)
[9] = biological target: Serine/threonine-protein kinase ATR (Homo sapiens, UniProt Q13535)
[10] = biological target: DNA topoisomerase 2-alpha (Homo sapiens, UniProt P11388)
[11] = biological target: Serine/threonine-protein kinase 24 (Homo sapiens, UniProt Q9Y6E0)
[12] = biological target: Epidermal growth factor receptor (Homo sapiens, UniProt P00533)
[13] = biological target: Dual specificity protein kinase CLK2 (Homo sapiens, UniProt P49760)
[14] = biological target: Mitogen-activated protein kinase 14 (Homo sapiens, UniProt Q16539)
[15] = biological target: Serine/threonine-protein kinase pim-2 (Homo sapiens, UniProt Q9P1W9)
[16] = biological target: Proto-oncogene tyrosine-protein kinase receptor Ret (Homo sapiens, UniProt P07949)
[17] = biological target: Rho-associated protein kinase 1 (Homo sapiens, UniProt Q13464)
[18] = biological target: High affinity nerve growth factor receptor (Homo sapiens, UniProt P04629)
Further: in the data inactive means no Kd found up to 30 µM.

Choline-phosphate cytidylyltransferase A, sequence (P49585 whole entry): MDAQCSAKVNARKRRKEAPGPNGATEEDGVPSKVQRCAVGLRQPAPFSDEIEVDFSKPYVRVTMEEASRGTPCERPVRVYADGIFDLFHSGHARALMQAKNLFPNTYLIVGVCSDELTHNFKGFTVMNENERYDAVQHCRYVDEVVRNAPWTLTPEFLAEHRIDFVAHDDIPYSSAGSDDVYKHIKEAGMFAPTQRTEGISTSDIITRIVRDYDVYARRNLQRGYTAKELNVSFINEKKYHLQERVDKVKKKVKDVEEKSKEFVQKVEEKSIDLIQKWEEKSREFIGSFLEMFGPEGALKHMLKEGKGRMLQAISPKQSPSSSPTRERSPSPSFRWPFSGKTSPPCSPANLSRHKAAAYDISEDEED
Bone morphogenetic protein receptor type-1A, sequence (P36894 whole entry, the tested form may be a part): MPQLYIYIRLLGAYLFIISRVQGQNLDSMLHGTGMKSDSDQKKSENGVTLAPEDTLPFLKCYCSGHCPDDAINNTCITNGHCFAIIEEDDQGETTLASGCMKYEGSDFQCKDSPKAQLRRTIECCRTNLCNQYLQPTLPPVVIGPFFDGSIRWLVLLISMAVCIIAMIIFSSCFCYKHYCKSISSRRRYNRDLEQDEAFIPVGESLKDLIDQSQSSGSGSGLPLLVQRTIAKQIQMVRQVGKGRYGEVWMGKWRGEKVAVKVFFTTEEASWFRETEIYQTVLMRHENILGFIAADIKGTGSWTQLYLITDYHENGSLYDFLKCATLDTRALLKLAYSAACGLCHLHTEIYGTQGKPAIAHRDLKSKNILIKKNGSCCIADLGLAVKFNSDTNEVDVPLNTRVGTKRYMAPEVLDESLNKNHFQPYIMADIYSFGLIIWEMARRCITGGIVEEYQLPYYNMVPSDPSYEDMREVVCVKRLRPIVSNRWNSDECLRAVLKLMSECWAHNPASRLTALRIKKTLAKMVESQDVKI

Row | SMILES | Kd [1] | Kd [2] | Kd [3] | Kd [4] | Kd [5] | Kd [6] | Kd [7] | Kd [8] | Kd [9] | Kd [10] | Kd [11] | Kd [12] | Kd [13] | Kd [14] | Kd [15] | Kd [16] | Kd [17] | Kd [18]
1 | C[C@]1(O)C[C@@H](c2nc(-c3ccc4ccc(-c5ccccc5)nc4c3)c3c(N)nccn32)C1 [LINSITINIB] | > 30 µM (inactive) | > 30 µM (inactive) | > 30 µM (inactive) | > 30 µM (inactive) | > 30 µM (inactive) | > 30 µM (inactive) | > 30 µM (inactive) | – | – | – | – | – | – | – | – | – | – | –
2 | Cn1c(=O)n(-c2ccc(C(C)(C)C#N)cc2)c2c3cc(-c4cnc5ccccc5c4)ccc3ncc21 [DACTOLISIB] | > 30 µM (inactive) | > 30 µM (inactive) | – | > 30 µM (inactive) | > 30 µM (inactive) | – | > 30 µM (inactive) | > 30 µM (inactive) | > 30 µM (inactive) | > 30 µM (inactive) | > 30 µM (inactive) | > 30 µM (inactive) | – | – | – | – | – | –
3 | Cn1cnc2c(F)c(Nc3ccc(Br)cc3Cl)c(C(=O)NOCCO)cc21 [SELUMETINIB] | > 30 µM (inactive) | – | > 30 µM (inactive) | – | – | > 30 µM (inactive) | > 30 µM (inactive) | > 30 µM (inactive) | – | > 30 µM (inactive) | – | – | – | – | – | – | – | –
4 | O=S(=O)(c1cccc2cnccc12)N1CCCNCC1 [FASUDIL] | > 30 µM (inactive) | > 30 µM (inactive) | > 30 µM (inactive) | > 30 µM (inactive) | > 30 µM (inactive) | > 30 µM (inactive) | > 30 µM (inactive) | > 30 µM (inactive) | – | > 30 µM (inactive) | – | – | – | – | – | – | – | –
5 | COc1cc2c(Oc3ccc4[nH]c(C)cc4c3F)ncnc2cc1OCCCN1CCCC1 [CEDIRANIB] | > 30 µM (inactive) | – | > 30 µM (inactive) | – | – | > 30 µM (inactive) | > 30 µM (inactive) | > 30 µM (inactive) | > 30 µM (inactive) | > 30 µM (inactive) | – | – | – | – | – | – | – | –
6 | COc1cccc2cc(-c3nc([C@H]4CC[C@H](C(=O)O)CC4)n4ncnc(N)c34)[nH]c12 [OSI-027] | > 30 µM (inactive) | > 30 µM (inactive) | – | > 30 µM (inactive) | > 30 µM (inactive) | – | > 30 µM (inactive) | > 30 µM (inactive) | – | > 30 µM (inactive) | > 30 µM (inactive) | > 30 µM (inactive) | > 30 µM (inactive) | > 30 µM (inactive) | > 30 µM (inactive) | 0.057 µM (active) | > 30 µM (inactive) | > 30 µM (inactive)
